# Reference: patent US20130045943A1, “A3AR AGONISTS FOR THE TREATMENT OF UVEITIS” (THE GOVERNMENT OF THE UNITED STATES OF AMERICA AS …, priority 2010, published 2013)
# “Also recorded” adds a separate entry of the source.
# Assays:
# Water solubility = type: physicochemical
# [1] = system: experimental acute uveitis (EAU) induced with IRBP in C57BL/6j mice; test: Experimental autoimmune uveitis (EAU) in mice, disease intensity scored by funduscopy; type: in vivo; settings: for inhibition of fundoscopy score: oral IB-MECA 10 μg/kg twice daily from day 7
# [2] = system: experimental acute uveitis (EAU) induced with IRBP in C57BL/6j mice; test: EAU in mice, histopathological grading of enucleated eyes; type: in vivo
# [3] = system: antigen-specific (IRBP) responses of T cells; test: In vitro antigen-driven proliferation assay (3[H]-thymidine incorporation) of drain lymph node cells from treated mice; type: cell-based, C57BL/6j mice; settings: lymph node cells from treated animals, cultured 48 hours with IRBP 0.2-20 μg/ml
# Procedure: To explore the immunological effects of IB-MECA on the antigen-specific responses of T cells, an in vitro antigen-driven proliferation assay was performed. Drain lymph nodes (inguinal and iliac) were collected from the IRBP immunized mice, both from the vehicle and from the IB-MECA treated groups. The cells were cultured for 48 hours in the presence of graded doses of IRBP (0.2-20 μg/ml) and proliferation was evaluated by an ^3[H]-thymidine incorporation assay.
smiles,measurement,setting,value
"CNC(=O)[C@H]1OC(n2cnc3c(NCc4cccc(I)c4)ncnc32)[C@H](O)[C@@H]1O (stereo partly drawn) [IB-MECA, 1-Deoxy-1-[6-[[(3-iodophenyl)methyl]amino]-9H-purine-9-yl]-N-methyl-D-ribofuranuronamide]",water solubility,Water solubility,not water soluble
same,inhibition of fundoscopy score,[1]; day 16 after immunization,91%
same,inhibition of fundoscopy score,[1]; day 20 after immunization,49.4%
same,development of EAU (FIG. 1),[1]; result in words,inhibited
same,histopathological score of EAU (FIG. 2),[2]; result in words,decreased
same,inhibition of pathological score in comparison to the vehicle-treated group,"[2]; upon study termination, oral IB-MECA 10 μg/kg twice daily from day 7",53%
same,T cell response to IRBP (proliferation),[3],moderate response; also recorded: ameliorates
